Where only a bound is given, the exact number is not on record here.

Experiment [1] has as its target T1, 5-hydroxytryptamine receptor 1A (Homo sapiens, UniProt P08908).
T1 sequence (P08908 whole entry): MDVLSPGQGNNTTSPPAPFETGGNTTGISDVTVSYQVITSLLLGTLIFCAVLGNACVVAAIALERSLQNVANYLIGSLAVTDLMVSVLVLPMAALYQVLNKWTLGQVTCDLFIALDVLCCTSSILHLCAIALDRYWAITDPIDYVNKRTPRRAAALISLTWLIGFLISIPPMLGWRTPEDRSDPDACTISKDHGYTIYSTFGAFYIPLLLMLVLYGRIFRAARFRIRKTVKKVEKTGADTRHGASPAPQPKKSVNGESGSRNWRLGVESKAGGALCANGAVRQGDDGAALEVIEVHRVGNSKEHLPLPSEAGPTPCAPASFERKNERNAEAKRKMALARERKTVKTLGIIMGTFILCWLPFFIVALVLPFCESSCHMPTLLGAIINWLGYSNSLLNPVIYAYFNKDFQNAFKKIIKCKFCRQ
Put plainly: Binding affinity against 5-hydroxytryptamine 1A receptor.

In experiment [2] the target is 5-hydroxytryptamine receptor 1D (Homo sapiens) (UniProt P28221). Briefly: Compound was measured for its binding affinity at 5-hydroxytryptamine 1D receptor at a concentration of 10 uM using [3H]5-HT as radioligand.
Experiment [3] addresses D(1A) dopamine receptor (Homo sapiens) (UniProt P21728). Briefly: Compound was measured for its binding affinity at Dopamine receptor D1 at a concentration of 10 uM using [3H]SCH-23390 as radioligand.
Experiment [4] addresses T2, Adrenergic receptor alpha-1 (Homo sapiens, UniProt P35348+P25100+P35368).
T2 sequence (P35348 whole entry): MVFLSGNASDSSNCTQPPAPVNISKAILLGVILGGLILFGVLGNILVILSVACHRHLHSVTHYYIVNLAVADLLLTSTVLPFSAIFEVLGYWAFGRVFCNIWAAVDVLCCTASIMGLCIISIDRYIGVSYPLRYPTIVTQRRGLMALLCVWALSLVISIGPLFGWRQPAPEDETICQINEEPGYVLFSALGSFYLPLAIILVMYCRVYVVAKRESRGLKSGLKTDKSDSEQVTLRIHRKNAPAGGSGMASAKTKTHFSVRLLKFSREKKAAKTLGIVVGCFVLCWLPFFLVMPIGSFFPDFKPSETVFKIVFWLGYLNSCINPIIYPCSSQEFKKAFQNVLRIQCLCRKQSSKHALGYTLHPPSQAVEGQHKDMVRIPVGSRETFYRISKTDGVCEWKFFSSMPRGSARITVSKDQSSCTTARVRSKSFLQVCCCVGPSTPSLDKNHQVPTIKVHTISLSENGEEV
T2 sequence (P25100 whole entry): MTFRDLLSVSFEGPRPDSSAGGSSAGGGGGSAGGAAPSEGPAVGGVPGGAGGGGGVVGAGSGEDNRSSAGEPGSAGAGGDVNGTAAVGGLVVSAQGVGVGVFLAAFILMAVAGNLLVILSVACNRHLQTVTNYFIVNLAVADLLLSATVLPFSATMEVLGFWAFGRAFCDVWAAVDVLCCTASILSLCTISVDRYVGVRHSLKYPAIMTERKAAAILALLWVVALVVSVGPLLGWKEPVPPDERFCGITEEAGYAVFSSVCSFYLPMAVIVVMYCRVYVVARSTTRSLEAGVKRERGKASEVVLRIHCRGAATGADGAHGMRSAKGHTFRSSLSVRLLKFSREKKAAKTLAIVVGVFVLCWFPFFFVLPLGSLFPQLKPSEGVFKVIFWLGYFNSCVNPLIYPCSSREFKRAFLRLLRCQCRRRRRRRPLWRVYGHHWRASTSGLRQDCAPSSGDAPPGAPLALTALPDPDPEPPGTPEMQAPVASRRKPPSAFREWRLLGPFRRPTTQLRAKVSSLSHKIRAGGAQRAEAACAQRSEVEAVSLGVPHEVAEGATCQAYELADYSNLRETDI
T2 sequence (P35368 whole entry): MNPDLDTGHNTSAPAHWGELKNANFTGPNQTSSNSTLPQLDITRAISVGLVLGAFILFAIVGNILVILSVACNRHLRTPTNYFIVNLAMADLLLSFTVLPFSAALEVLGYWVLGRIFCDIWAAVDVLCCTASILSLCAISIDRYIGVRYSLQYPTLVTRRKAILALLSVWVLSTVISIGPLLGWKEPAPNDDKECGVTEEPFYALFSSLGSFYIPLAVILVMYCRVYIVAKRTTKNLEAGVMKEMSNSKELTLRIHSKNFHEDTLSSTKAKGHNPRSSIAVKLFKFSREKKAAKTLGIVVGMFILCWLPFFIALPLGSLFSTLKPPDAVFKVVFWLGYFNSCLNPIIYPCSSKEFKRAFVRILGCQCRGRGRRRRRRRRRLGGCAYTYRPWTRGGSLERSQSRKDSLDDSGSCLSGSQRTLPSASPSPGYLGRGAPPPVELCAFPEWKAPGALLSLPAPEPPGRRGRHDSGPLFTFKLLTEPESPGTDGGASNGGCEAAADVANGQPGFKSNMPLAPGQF
Briefly: Compound was measured […] for its binding affinity at Alpha-1 adrenergic receptor using [3H]prazosin as radioligand.

Experiment [5] relates to Rattus norvegicus. Put plainly: Compound was measured for its antipsychotic activity in the rat conditioned avoidance test, at a dose of 15 mg/kg administered perorally. The settings on record: route oral. It counts as functional.
The next experiment has as its target D(2) dopamine receptor (Homo sapiens, UniProt P14416).
The target in experiment [6] is T3, D(3) dopamine receptor (Homo sapiens, UniProt P35462). Put plainly: Compound was measured […] for its inhibition of Dopamine receptor D3 at a concentration of 100 nM.
Experiment [7] deals with Serotonin 3 (5-HT3) receptor (Homo sapiens) (UniProt P46098+A5X5Y0+O95264+Q70Z44+Q8WXA8). Briefly: Compound was measured for its binding affinity at 5-hydroxytryptamine 3 receptor at a concentration of 10 uM using [3H]BRL-43694 as radioligand. In kind it is protein-complex assay.
The target of experiment [8] is Serotonin 2 (5-HT2) receptor (Homo sapiens) (UniProt P41595+P28223+P28335). Put plainly: Compound was measured for its binding affinity at 5-hydroxytryptamine 2 receptor at a concentration of 10 uM using [3H]ketanserin as radioligand. In kind it is protein assay.
Experiment [9] deals with T1, 5-hydroxytryptamine receptor 1A. Briefly: Compound was measured […] for its binding affinity at 5-hydroxytryptamine 1A receptor using [3H]8-OH-DPAT as radioligand.
For experiment [10], the target named is 5-hydroxytryptamine receptor 1B (Homo sapiens) (UniProt P28222). Briefly: Compound was measured for its binding affinity at 5-hydroxytryptamine 1B receptor at a concentration of 100 nM using [125I]CYP as radioligand.
Experiment [11] deals with T4, 5-hydroxytryptamine receptor 2C (Homo sapiens) (UniProt P28335).
T4 sequence (whole entry): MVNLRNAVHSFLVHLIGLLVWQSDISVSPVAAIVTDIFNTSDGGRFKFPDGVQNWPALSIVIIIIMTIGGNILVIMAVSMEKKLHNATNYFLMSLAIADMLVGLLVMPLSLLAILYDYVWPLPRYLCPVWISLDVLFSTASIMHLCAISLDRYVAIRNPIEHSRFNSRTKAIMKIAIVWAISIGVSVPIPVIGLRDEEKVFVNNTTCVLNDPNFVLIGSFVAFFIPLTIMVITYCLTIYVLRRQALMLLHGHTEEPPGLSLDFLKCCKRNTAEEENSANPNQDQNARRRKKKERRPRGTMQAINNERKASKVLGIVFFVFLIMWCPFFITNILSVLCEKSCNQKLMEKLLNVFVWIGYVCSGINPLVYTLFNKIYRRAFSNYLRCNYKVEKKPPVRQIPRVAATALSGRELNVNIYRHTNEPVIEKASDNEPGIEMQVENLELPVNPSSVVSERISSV
Briefly: Compound was measured for its binding affinity at 5-hydroxytryptamine 1C receptor at a concentration of 100 nM using [3H]mesulergine as radioligand.

In experiment [12] the target is 5-hydroxytryptamine receptor 5B (Rattus norvegicus, UniProt P35365). Put plainly: Binding affinity against serotonin receptor.
In experiment [13] the test system is Rattus norvegicus. Briefly: Compound was measured for its antipsychotic activity in the rat conditioned avoidance test, at a dose of 15 mg/kg compound administered perorally. It counts as functional. The settings on record: route oral.
Experiment [14] concerns Rattus norvegicus. Put plainly: Compound was measured for its antipsychotic activity in the rat conditioned avoidance test at a dose of 15 mg/kg administered perorally. In kind it is functional. The settings on record: route oral.
The target of experiment [15] is T3, D(3) dopamine receptor.

D(1A) dopamine receptor (Homo sapiens), sequence (P21728 whole entry): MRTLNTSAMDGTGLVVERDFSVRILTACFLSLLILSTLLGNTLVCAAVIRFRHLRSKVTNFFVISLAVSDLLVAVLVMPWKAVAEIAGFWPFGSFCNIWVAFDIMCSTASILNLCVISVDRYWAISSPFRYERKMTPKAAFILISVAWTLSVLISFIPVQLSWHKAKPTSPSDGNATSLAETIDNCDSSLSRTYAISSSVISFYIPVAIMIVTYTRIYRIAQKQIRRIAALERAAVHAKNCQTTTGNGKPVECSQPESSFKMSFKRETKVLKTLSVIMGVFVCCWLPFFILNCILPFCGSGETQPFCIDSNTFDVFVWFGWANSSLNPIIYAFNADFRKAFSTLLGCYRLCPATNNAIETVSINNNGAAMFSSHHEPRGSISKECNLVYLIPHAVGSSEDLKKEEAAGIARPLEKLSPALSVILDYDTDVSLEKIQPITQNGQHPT
T3 sequence (P35462 whole entry): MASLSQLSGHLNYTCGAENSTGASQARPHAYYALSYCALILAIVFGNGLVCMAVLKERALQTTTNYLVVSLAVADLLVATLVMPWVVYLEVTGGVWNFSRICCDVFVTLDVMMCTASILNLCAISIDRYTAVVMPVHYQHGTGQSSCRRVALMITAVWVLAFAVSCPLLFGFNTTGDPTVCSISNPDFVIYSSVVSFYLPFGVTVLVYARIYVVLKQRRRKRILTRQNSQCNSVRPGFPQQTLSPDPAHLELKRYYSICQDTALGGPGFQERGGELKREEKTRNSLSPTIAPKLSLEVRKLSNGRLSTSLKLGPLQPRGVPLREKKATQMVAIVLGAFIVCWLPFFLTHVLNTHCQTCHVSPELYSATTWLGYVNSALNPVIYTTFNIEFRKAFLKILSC
5-hydroxytryptamine receptor 1D (Homo sapiens), sequence (P28221 whole entry): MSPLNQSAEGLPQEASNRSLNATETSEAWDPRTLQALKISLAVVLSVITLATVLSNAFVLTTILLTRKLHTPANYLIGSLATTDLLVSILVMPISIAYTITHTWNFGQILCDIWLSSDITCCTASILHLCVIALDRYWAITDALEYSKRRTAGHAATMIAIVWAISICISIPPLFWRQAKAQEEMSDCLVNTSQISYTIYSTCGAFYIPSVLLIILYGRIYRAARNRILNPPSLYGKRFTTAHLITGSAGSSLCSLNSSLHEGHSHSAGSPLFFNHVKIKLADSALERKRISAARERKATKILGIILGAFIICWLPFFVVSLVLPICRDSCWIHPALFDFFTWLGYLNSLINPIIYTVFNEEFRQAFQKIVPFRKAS
5-hydroxytryptamine receptor 1B (Homo sapiens), sequence (P28222 whole entry): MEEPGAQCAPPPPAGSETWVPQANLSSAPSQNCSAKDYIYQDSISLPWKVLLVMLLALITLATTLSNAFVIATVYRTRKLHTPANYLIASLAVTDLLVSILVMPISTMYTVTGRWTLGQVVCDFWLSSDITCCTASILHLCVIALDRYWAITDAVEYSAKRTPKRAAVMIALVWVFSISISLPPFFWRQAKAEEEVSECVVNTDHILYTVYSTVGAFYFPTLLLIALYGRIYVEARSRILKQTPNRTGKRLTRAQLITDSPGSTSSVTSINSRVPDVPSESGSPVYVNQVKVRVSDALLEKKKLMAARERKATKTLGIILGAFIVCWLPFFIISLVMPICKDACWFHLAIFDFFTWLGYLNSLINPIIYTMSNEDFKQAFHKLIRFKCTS
D(2) dopamine receptor, sequence (P14416 whole entry): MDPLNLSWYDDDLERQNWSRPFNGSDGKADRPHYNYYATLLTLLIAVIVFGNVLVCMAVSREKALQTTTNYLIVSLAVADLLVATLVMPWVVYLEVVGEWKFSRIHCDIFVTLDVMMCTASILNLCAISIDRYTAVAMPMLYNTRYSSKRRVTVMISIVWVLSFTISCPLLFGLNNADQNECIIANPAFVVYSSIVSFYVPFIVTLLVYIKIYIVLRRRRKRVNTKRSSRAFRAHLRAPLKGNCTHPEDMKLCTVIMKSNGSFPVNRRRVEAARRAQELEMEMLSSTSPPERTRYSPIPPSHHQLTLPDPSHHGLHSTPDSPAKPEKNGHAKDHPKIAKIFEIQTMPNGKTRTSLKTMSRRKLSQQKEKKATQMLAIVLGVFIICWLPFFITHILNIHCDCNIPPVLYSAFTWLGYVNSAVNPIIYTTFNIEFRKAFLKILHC
Serotonin 2 (5-HT2) receptor (Homo sapiens), sequence (P28223 whole entry, looked up, one chain of several): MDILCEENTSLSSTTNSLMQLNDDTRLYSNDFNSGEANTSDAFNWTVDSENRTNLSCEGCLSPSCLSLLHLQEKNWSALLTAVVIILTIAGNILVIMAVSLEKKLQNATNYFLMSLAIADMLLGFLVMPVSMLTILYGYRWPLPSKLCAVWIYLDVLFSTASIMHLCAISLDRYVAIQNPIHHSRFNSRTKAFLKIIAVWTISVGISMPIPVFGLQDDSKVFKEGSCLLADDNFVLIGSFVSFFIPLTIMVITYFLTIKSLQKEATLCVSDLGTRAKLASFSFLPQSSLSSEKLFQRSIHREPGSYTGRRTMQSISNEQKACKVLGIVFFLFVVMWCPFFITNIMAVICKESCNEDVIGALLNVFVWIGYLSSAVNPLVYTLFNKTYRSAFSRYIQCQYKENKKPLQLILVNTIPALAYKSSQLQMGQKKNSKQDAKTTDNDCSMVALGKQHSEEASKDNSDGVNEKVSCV
Serotonin 2 (5-HT2) receptor (Homo sapiens), sequence (P41595 whole entry, looked up, one chain of several): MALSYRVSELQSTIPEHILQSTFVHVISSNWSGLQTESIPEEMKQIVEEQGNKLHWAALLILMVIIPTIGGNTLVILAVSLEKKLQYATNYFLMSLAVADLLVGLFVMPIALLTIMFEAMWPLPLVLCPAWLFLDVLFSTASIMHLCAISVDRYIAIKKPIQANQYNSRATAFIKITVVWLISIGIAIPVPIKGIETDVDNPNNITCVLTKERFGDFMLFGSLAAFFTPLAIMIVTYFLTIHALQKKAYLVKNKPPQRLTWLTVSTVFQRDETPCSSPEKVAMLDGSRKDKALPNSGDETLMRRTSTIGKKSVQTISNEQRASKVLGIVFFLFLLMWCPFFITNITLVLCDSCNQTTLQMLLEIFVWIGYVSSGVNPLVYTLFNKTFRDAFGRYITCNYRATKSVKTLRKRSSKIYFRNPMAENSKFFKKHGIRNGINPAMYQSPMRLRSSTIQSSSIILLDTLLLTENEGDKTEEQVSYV
5-hydroxytryptamine receptor 5B, sequence (P35365 whole entry): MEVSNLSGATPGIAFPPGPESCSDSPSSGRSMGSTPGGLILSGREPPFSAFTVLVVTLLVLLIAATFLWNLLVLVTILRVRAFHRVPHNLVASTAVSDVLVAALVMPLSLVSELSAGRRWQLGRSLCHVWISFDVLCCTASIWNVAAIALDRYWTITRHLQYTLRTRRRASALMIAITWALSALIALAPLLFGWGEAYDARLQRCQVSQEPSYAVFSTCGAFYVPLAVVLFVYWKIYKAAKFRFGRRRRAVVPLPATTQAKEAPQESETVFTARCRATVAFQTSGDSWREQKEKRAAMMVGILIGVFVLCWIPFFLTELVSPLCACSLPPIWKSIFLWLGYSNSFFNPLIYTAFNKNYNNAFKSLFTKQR
Description for D(2) dopamine receptor: Compound was measured in vivo for its binding affinity at Dopamine receptor D2 using [3H]spiperone as radioligand.

As to `CCCN1CCC[C@@H]2c3cc(O)ccc3CC[C@H]21`, affinity in [1] was put at a Ki of 3.87 nM.
Turning to `O=C1c2ccccc2C(=O)N1CCCCN1CCn2c(cc3ccccc32)C1`, the Ki (usually the dissociation constant of the complex between target and ligand, obtained from inhibition or displacement) in experiment [1] was found to be 74 nM.
Take `O=C(c1cccc(CN2CCc3c([nH]c4ccccc34)C2)c1)N1CCCCC1`: the inhibition (in general, the change of the read-out against control, counted positive when it falls) in experiment [2] amounted to 74.7%; in experiment [3], 23.7%; on D(3) dopamine receptor [6], 27%; in experiment [7], 13.6%; in experiment [8], 18%; in experiment [10], 1%. For the same compound, the inhibition in experiment [11] stood at 5.5%. Moreover, the inhibition constant (Ki) in experiment [4] was determined as 36 nM; at D(2) dopamine receptor, 374 nM; in [9] it was 13 nM. In addition, the inhibition in vivo – broadly, the drop in the measured response relative to a control, in per cent – at 15 mg/kg in the experiment with Rattus norvegicus [5] is -74%.
On to `FC(F)(F)c1ccc2c(c1)N1CCNCC1CC2` (stereo not drawn), for which affinity in experiment [12] was put at a Ki of 67 nM.
`COc1cccc2c1C1CCN(CCCN3C(=O)c4ccccc4S3(=O)=O)C[C@H]1C2` (stereo partly drawn) had a Ki in [1] of 0.89 nM.
On to `CC(C)Oc1ccccc1N1CCN(Cc2cccc(C(=O)N3CCc4ccccc43)c2)CC1`, for which the inhibition in vivo at 15 mg/kg in the experiment on Rattus norvegicus [13] is -96%. For the same compound, the figures for the inhibition constant Ki in experiment [4] and in experiment [9] were 1.7 nM and 3.4 nM, respectively.
With `O=C(c1cccc(CN2CCN3c4ccccc4OCC3C2)c1)N1CCCCC1` (stereo not drawn), the inhibition in experiment [2] came to 63.8%; in experiment [3] it was 14.7%; at D(3) dopamine receptor [6], 64%; in experiment [7], 5.1%; in experiment [8], 7.5%; in experiment [10], 3.4%. Moreover, the inhibition in experiment [11] was determined as 5.6%. The Ki in experiment [4] is 200 nM; on D(2) dopamine receptor it was above 1000 nM; in experiment [9] it was 12 nM. Besides, the inhibition in vivo at 15 mg/kg in the experiment on Rattus norvegicus [14] is -49%.
Regarding `CC(C)Oc1ccccc1N1CCN(Cc2cccc(C(=O)N3CCCCC3)c2)CC1` [MAZAPERTINE], the Ki on D(3) dopamine receptor [15] was 1.8 nM.
For `O=C(c1cccc(CN2CCN3c4ccccc4OCC3C2)c1)N1CCc2ccccc21` (stereo not drawn), the inhibition in experiment [2] amounted to 58.9%; in [3], 42.4%; on D(3) dopamine receptor [6], 54%; in experiment [7] it was 12.5%; in experiment [8] it was 7.5%; in experiment [10], 8.1%. For the same compound, the inhibition in experiment [11] was -2.8%. Also, the values for the Ki (in experiment [4]; on D(2) dopamine receptor; in experiment [9]) were above 1000 nM, above 1000 nM and 6.5 nM, respectively. Also, the inhibition in vivo at 15 mg/kg with Rattus norvegicus [5] was -20%.
In the case of `O=C(c1cccc(CN2CCc3c([nH]c4ccccc34)C2)c1)N1CCc2ccccc21`, the inhibition in experiment [2] is 86.1%; in experiment [3], 40.8%; on D(3) dopamine receptor [6], 56%; in experiment [7], 22.6%; in [8], 29.9%; in experiment [10], 8.8%. For the same compound, in experiment [11], the inhibition stood at 8.7%. Also, the Ki in experiment [4] is 2.9 nM; at D(2) dopamine receptor, above 1000 nM; in [9], 9.2 nM. Moreover, the inhibition in vivo at 15 mg/kg in the experiment on Rattus norvegicus [5] was -37%.
For `CCCCCCN1CCc2c([nH]c3ccccc23)C1`, the Ki in [1] is 79 nM.

These data come from ChEMBL document CHEMBL1129884, “Hindered rotation congeners of mazapertine: High affinity ligands for the 5-HT1A receptor” (Bioorg Med Chem Lett, 1997).
